Results on eleven molecules are retold here after patent US5143929A, “2-substituted thiazolidinone, oxazolidinone, and imidazolidinone derivatives of fenamates as antiinflammatory agents” (Warner-Lambert Company, priority 1991, dated 1992).

The target in one experiment is T1, 5-lipoxygenase (Rattus norvegicus, UniProt P12527).
T1 construct: host or cells: RBL-1 (rat basophilic leukemia)
T1 sequence (P12527 1-673): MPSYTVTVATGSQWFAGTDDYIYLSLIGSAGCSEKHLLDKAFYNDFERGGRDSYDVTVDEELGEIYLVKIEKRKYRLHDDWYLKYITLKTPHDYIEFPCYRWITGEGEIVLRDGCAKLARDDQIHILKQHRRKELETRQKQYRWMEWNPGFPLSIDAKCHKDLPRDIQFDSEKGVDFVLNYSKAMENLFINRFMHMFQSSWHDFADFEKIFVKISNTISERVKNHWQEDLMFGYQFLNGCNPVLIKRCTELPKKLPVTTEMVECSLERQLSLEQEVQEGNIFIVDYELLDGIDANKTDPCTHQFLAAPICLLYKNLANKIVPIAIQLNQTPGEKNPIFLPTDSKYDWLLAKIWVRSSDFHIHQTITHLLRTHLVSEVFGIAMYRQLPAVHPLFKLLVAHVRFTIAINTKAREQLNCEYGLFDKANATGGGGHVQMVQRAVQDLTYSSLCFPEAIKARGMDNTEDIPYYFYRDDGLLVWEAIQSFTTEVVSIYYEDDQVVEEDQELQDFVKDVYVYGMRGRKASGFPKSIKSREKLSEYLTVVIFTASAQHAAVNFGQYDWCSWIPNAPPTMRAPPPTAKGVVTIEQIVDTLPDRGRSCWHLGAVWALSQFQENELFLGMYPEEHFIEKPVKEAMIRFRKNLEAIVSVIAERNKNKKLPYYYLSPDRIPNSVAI
Description: ARBL whole cell 5-lipoxygenase assay (inhibition of LTB4 formation in RBL-1 cells). The format is cell-based. The note with it: for pIC50: A23187 stimulated, read-out: ARBL: IC50 (50% inhibition of LTB4 formation). The procedure:
(§1) The rat basophilic leukemia cell line (RBL-1) was obtained from the American Type Culture Collection (Rockville, Md.).
(§2) Radioimmunoassay (RIA) kits of LTB4 and PGF2α were obtained from Amersham (Arlington Heights, Ill.) and Seragen (Boston, Mass.), respectively.
(§3) All tissue culture media were obtained from GIBCO (Grand Island, N.Y.).
(§4) RBL-1 cells are grown in suspension culture in Eagles minimum essential medium supplemental with 12% fetal bovine serum at 37° C. in an incubator supplied with air--5% carbon dioxide. Cells are harvested by centrifugation. They are washed with cold phosphate-buffered saline, pH 7.4 (PBS; NaCl, 7.1 g; Na2 HPO4, 1.15 g; KH2 PO4, 0.2 g; and KCl, 0.2 g/L). Cells are incubated with and without test agent (in DMSO) (1% DMSO is without effect on arachidonic acid metabolism) for 10 minutes at room temperature. Calcium ionophore A23187 (5 μM) is added and cells are incubated for 7 minutes at 37° C. The reaction is stopped by chilling the tubes on ice for 10 minutes. Cells are finally suspended in PBS containing 1.0 mM calcium at a density of 2×10^6 cells/mL. Cells are separated by centrifugation and the supernatant is stored at -20° C. Aliquots (100 μL) are analyzed for LTB4 and PGF2α using radioimmunoassay kits as provided by the supplier.
(§5) Table 1 contains biochemical data for compounds of formula I obtained from this whole cell assay as IC50 s which are calculated as the concentration of a test compound in micromoles (μM) causing 50% inhibition of LTB4 or PGF2α formation.

Another experiment concerns the target T2, cyclooxygenase (Rattus norvegicus, UniProt Q63921).
T2 construct: host or cells: RBL-1 (rat basophilic leukemia)
T2 sequence (Q63921 27-602): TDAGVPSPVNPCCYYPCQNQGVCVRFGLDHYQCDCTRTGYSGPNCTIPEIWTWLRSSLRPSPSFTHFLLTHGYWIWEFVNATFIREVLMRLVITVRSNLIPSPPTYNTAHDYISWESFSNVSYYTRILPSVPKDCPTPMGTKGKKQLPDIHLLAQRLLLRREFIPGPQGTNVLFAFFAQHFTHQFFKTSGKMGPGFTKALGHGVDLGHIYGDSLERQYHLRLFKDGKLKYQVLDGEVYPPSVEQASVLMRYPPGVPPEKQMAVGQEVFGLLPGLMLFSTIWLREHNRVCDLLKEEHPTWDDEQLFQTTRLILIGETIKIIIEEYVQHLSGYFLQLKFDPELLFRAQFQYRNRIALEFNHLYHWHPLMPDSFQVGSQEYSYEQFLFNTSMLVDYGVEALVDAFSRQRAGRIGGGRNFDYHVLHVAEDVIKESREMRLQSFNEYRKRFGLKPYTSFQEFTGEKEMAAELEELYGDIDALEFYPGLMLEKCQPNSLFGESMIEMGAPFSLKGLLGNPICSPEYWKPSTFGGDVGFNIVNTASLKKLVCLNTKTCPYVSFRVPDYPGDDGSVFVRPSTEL
Description: ARBC whole cell cyclooxygenase assay (inhibition of PGF2α formation in RBL-1 cells). It is filed as cell-based. The settings on record: for pIC50: A23187 stimulated, Table 2 (formula II), read-out: ARBC: IC50 (50% inhibition of PGF2α formation). How it is done: as §1, §2, §3, §4, §5

Where [1] appears, read: read-out: ARBL: % inhibition of LTB4 at 10 μM, 10 μM, A23187 stimulated, Table 2 (formula II).
The mark [2] stands for this setting: read-out: ARBC: % inhibition of PGF2α at 10 μM, 10 μM, A23187 stimulated, Table 2 (formula II).
Where [3] appears, read: read-out: ARBL: % inhibition of LTB4 at 10 μM, 10 μM, A23187 stimulated, Table 1 (formula I).
Where [4] appears, read: read-out: ARBC: % inhibition of PGF2α at 10 μM, 10 μM, A23187 stimulated, Table 1 (formula I).

As a reminder, the pIC50 is −log10 of the IC50, conventionally taken in molar units. The inhibition is the percentage by which the read-out fell short of the control.

Each structure is given as a SMILES string. pIC50: −log10 of the molar value. Like-named read-outs stand apart in the source and are kept apart here. Where only a bound is given, the exact number is not on record here.

For the molecule `Cc1ccc(Cl)c(Nc2ccccc2/C=C2\SC(=S)NC2=O)c1Cl` [Example 1, (Z)-5-[[2-[(2,6-Dichloro-3-methylphenyl)amino]phenyl]methylene]-2-thioxo-4-thiazolidinone], the pIC50 was 6.09 at 5-lipoxygenase (Table 2 (formula II)) and 5.22 at cyclooxygenase.
As to `O=C1NC(=S)S/C1=C\c1ccccc1Nc1cccc(C(F)(F)F)c1` [Example 2, (Z)-2-Thioxo-5-[[2-[[3-(trifluoromethyl)phenyl]amino]phenyl]methylene]-4-thiazolidinone], the inhibition at 10 µM at 5-lipoxygenase (setting [1]) and on cyclooxygenase (setting [2]) was less than 40% each time.
`Cc1ccc(Cl)c(Nc2ccccc2/C=C2\SC(=S)N(C)C2=O)c1Cl` [Example 3, (Z)-5-[[2-[(2,6-Dichloro-3-methylphenyl)amino]phenyl]methylene]-3-methyl-2-thioxo-4-thiazolidinone]: the results for the inhibition at 10 µM on 5-lipoxygenase (setting [3]) and on cyclooxygenase (setting [4]) were 100% and less than 40%, respectively.
With `CN1C(=O)/C(=C/c2ccccc2Nc2cccc(C(F)(F)F)c2)SC1=S` [Example 4], the inhibition at 10 µM at 5-lipoxygenase (setting [3]) and on cyclooxygenase (setting [4]) was less than 40% in each case.
Regarding `Cc1ccc(Cl)c(Nc2ccccc2/C=C2\SC(=N)NC2=O)c1Cl` [Example 5, (Z)-5-[[2-[(2,6-Dichloro-3-methylphenyl)amino]phenyl]methylene]-2-imino-4-thiazolidinone], the inhibition at 10 µM on 5-lipoxygenase (setting [1]) and on cyclooxygenase (setting [2]) was less than 40% throughout.
Consider `CSC1=NC(=O)/C(=C/c2ccccc2Nc2c(Cl)ccc(C)c2Cl)S1` [Example 6, (Z)-5-[[2-[(2,6-Dichloro-3-methylphenyl)amino]phenyl]methylene]-2-(methylthio)-4(5H)-thiazolone], for which the results for the inhibition at 10 µM at 5-lipoxygenase (setting [1]) and at cyclooxygenase (setting [2]) were 100% and less than 40%, respectively.
As to `Cc1ccc(Cl)c(Nc2ccccc2/C=C2\SC(=O)NC2=O)c1Cl` [Example 7, (Z)-5-[[2-[(2,6-Dichloro-3-methylphenyl)amino]phenyl]methylene]-2,4-thiazolidinedinone], the inhibition at 10 µM on 5-lipoxygenase (setting [1]) was 55%; on cyclooxygenase (setting [2]), less than 40%.
`Cc1ccc(Cl)c(Nc2ccccc2/C=C2\SC(NC#N)=NC2=O)c1Cl` [Example 8]: the figures for the pIC50 on 5-lipoxygenase (Table 2 (formula II)) and on cyclooxygenase were 5.83 and 4.99, respectively.
Consider `O=C1NC(=O)/C(=C/c2ccccc2Nc2cccc(C(F)(F)F)c2)S1` [Example 9, (Z)-5-[[2-[[3-(Trifluoromethyl)phenyl]amino]phenyl]methylene]-2,4-thiazolidinedione], for which the inhibition at 10 µM on 5-lipoxygenase (setting [1]) and at cyclooxygenase (setting [2]) was less than 40% in each case.
As for `Cc1ccc(Cl)c(Nc2ccccc2/C=C2\SC(=S)N(CC(=O)O)C2=O)c1Cl` [Example 10, (Z)-5-[[2-[[2-Dichloro-3-methylphenyl)-amino]phenyl]methylene]-4-oxo-2-thioxo-3-thiazolidine acetic acid], the pIC50 at 5-lipoxygenase (Table 1 (formula I)) is 5.66. Moreover, the inhibition at 10 µM on cyclooxygenase (setting [4]) was less than 40%.
As for `CC(C)(C)c1cc(Nc2ccccc2/C=C2\SC(=S)NC2=O)cc(C(C)(C)C)c1O` [Example 12], the pIC50 on 5-lipoxygenase (Table 2 (formula II)) was 5.83; on cyclooxygenase it was 5.65.
